Drawing on US20250026721A1, “COMPOUNDS AND METHODS FOR MODULATING RAS-PI3K” (Vividion Therapeutics, Inc., priority 2023, published 2025), this text covers IC50 for 23 molecules.

One assay has as its target T1, PIK3CA_C242 (Homo sapiens, UniProt P42336).
T1 construct: endogenous in cells; host or cells: Jurkat cell lysate
Nature of the assay: Proteomic TE50 (IA-DTB / TMT mass spectrometry) in Jurkat cell lysate. It is filed as binding. The note with it: 1 hour at rt, 7-point dose response. The method, boiled down: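 Jurkat lysate (500 μg) treated with compound (7-point, 1:5 dilutions) for 1 h at rt, then labelled with 200 μM IA-DTB for 1 h. After digestion and streptavidin enrichment, the C242 peptide was quantified by targeted MS3 TMT. TE50 was derived from reporter-ion S/N dose-response curves.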

For a further assay, the target named is T2, PIK3CA (Homo sapiens, UniProt P42336).
T2 construct: endogenous in cells; host or cells: Jurkat cell lysate
The assay is described as follows: In vitro ELISA target engagement assay for PIK3CA in Jurkat cellular lysate (competition with PIK3CA Biotin Probe). The format is binding. Conditions: 1 hour at rt, then 500 nM PIK3CA Biotin Probe, read-out: Elisa Target Engagement Assay (TE50). The method, boiled down: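 Jurkat lysate from sonicated frozen cells was preincubated 1 h at rt with serially diluted compound up to 200 μM, then labelled 1 h at rt with PIK3CA biotin probe at 500 nM final. Probe-bound PIK3CA was captured on antibody-coated plates and detected with Neutravidin-HRP luminescence; TE50 derived from the dose response.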

T1 sequence (P42336 whole entry): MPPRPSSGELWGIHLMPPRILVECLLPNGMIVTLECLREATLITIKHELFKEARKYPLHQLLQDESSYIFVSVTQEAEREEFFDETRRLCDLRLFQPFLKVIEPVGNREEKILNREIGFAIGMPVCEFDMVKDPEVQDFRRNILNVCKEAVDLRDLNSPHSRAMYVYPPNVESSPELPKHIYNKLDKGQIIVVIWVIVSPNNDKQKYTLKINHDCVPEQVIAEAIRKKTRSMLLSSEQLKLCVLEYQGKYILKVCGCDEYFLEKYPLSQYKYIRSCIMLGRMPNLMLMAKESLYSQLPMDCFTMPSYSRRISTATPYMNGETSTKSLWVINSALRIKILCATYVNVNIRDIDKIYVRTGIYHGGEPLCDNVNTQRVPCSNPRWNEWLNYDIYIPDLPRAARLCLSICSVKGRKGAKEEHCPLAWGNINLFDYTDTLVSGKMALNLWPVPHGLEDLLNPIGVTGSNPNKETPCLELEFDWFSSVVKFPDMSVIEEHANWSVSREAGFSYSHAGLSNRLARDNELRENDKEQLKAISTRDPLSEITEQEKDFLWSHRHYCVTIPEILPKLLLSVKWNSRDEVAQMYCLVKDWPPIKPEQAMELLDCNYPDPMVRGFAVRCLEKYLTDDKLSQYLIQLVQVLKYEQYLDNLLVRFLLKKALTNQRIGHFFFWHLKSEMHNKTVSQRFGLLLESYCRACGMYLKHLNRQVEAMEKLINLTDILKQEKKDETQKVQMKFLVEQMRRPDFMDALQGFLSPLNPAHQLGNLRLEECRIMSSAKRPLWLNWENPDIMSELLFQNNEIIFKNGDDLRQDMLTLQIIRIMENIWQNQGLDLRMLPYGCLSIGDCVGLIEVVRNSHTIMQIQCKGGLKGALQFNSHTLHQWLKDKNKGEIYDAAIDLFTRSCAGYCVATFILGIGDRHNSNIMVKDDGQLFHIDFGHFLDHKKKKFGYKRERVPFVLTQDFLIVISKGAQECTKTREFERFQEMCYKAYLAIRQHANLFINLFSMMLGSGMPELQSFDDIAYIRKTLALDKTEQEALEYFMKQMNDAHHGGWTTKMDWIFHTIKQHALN
T1 sequence (P27986 whole entry partner): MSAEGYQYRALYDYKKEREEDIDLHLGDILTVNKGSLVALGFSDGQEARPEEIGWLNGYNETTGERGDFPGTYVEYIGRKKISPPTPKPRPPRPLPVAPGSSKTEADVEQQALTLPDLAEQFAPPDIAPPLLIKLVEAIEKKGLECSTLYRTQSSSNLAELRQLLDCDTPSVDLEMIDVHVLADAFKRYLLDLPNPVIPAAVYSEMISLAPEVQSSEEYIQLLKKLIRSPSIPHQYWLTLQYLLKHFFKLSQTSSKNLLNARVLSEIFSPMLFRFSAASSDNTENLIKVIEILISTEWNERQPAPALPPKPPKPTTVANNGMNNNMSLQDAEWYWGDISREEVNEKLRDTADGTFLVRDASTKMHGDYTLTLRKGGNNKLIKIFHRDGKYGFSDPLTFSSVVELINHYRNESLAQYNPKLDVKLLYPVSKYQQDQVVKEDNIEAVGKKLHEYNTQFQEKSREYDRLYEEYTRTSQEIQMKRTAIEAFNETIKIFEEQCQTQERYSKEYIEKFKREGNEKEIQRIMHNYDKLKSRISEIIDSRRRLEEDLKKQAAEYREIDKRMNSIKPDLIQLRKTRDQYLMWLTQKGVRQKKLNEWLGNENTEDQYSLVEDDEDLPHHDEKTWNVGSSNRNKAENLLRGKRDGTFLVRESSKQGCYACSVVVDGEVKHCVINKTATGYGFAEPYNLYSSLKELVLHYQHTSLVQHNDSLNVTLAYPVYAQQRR
T2 sequence (P42336 whole entry): as the sequence (P42336 whole entry) above
T2 sequence (P27986 whole entry partner): as the sequence (P27986 whole entry partner) above

As to `C[C@H](/C=C\S(C)(=O)=O)NC(=O)C1(F)CCN(S(=O)(=O)c2cn(C)c(=O)cc2-c2ccccc2Cl)CC1` [Compound 274, (R,Z)-1-((4-(2-chlorophenyl)-1-methyl-6-oxo-1,6-dihydropyridin-3-yl)sulfonyl)-4-fluoro-N-(4-(methylsulfonyl)but-3-en-2-yl)piperidine-4-carboxamide], the IC50 stood at 0.57 µM against PIK3CA_C242 and 1.1 µM at PIK3CA.

As for `CCCCCOc1cccc(-c2cc(Cl)ccc2S(=O)(=O)N2CCC(F)(C(=O)N[C@@H](C)/C=C\S(C)(=O)=O)CC2)c1` [Compound 262, (S,Z)-1-((5-chloro-3′-(pentyloxy)-[1,1′-biphenyl]-2-yl)sulfonyl)-4-fluoro-N-(4-(methylsulfonyl)but-3-en-2-yl)piperidine-4-carboxamide], the IC50 came to 0.43 µM at PIK3CA_C242 and 0.78 µM on PIK3CA.

In the case of `COc1ccc(S(=O)(=O)N2CCC(F)(C(=O)N[C@H](C)/C=C\S(C)(=O)=O)CC2)c(-c2ccc(F)cc2Cl)c1` [Compound 27, (R,Z)-1-((2′-chloro-4′-fluoro-5-methoxy-[1,1′-biphenyl]-2-yl)sulfonyl)-4-fluoro-N-(4-(methylsulfonyl)but-3-en-2-yl)piperidine-4-carboxamide], the IC50 at PIK3CA_C242 was 0.43 µM; on PIK3CA, 0.45 µM.

For `C[C@H](/C=C\S(C)(=O)=O)NC(=O)C1(F)CCN(S(=O)(=O)c2ccc(C3COC3)cc2-c2ccccc2Cl)CC1` [Compound 132, (R,Z)-1-((2′-chloro-5-(oxetan-3-yl)-[1,1′-biphenyl]-2-yl)sulfonyl)-4-fluoro-N-(4-(methylsulfonyl)but-3-en-2-yl)piperidine-4-carboxamide], the IC50 against PIK3CA_C242 was determined as 0.468 µM; on PIK3CA, 0.524 µM.

Turning to `C=C(C)c1ccc(S(=O)(=O)N2CCC(F)(C(=O)N[C@H](C)/C=C\S(C)(=O)=O)CC2)c(-c2ccccc2C)c1` [Compound 110, (R,Z)-4-fluoro-1-((2′-methyl-5-(prop-1-en-2-yl)-[1,1′-biphenyl]-2-yl)sulfonyl)-N-(4-(methylsulfonyl)but-3-en-2-yl)piperidine-4-carboxamide], the IC50 on PIK3CA_C242 worked out at 0.363 µM; at PIK3CA it was 0.83 µM.

Regarding `COc1ccc(Cl)c(-c2cc(Cl)ccc2S(=O)(=O)N2CCC(F)(C(=O)N[C@@H](C)/C=C\S(C)(=O)=O)CC2)c1` [Compound 16, (S,Z)-1-((2′,5-dichloro-5′-methoxy-[1,1′-biphenyl]-2-yl)sulfonyl)-4-fluoro-N-(4-(methylsulfonyl)but-3-en-2-yl)piperidine-4-carboxamide], the IC50 against PIK3CA_C242 amounted to 0.21 µM; at PIK3CA it was 0.2 µM.

Take `CCOc1cccc(-c2cc(Cl)ccc2S(=O)(=O)N2CCC(F)(C(=O)N[C@@H](C)/C=C\S(C)(=O)=O)CC2)c1` [Compound 10, (S,Z)-1-((5-chloro-3′-ethoxy-[1,1′-biphenyl]-2-yl)sulfonyl)-4-fluoro-N-(4-(methylsulfonyl)but-3-en-2-yl)piperidine-4-carboxamide]: the IC50 at PIK3CA_C242 was 0.275 µM; at PIK3CA, 0.32 µM.

On to `C[C@@H](/C=C\S(C)(=O)=O)NC(=O)C1(F)CCN(S(=O)(=O)c2ccc(Cl)cc2-c2ccccc2Cl)CC1` [Compound 6, (S,Z)-1-((2′,5-dichloro-[1,1′-biphenyl]-2-yl)sulfonyl)-4-fluoro-N-(4-(methylsulfonyl)but-3-en-2-yl)piperidine-4-carboxamide], for which the IC50 on PIK3CA_C242 is 0.026 µM; at PIK3CA, 0.05 µM.

For `C[C@@H](/C=C\S(C)(=O)=O)NC(=O)C1(F)CCN(S(=O)(=O)c2ccc(Cl)cc2-c2cccc(Cl)c2)CC1` [Compound 3, (S,Z)-1-((3′,5-dichloro-[1,1′-biphenyl]-2-yl)sulfonyl)-4-fluoro-N-(4-(methylsulfonyl)but-3-en-2-yl)piperidine-4-carboxamide], the IC50 amounted to 0.11 µM against PIK3CA_C242 and 0.09 µM at PIK3CA.

Turning to `C[C@H](/C=C/C(=O)N1CC(F)(F)C1)NC(=O)C1(F)CCN(S(=O)(=O)c2ccc(Br)cc2-c2ccccc2Cl)CC1` [Compound 135, (R,E)-1-((5-bromo-2′-chloro-[1,1′-biphenyl]-2-yl)sulfonyl)-N-(5-(3,3-difluoroazetidin-1-yl)-5-oxopent-3-en-2-yl)-4-fluoropiperidine-4-carboxamide], the IC50 on PIK3CA_C242 came to 0.12 µM; on PIK3CA, 0.0872 µM.

Regarding `C[C@H](/C=C\S(C)(=O)=O)NC(=O)C1(F)CCN(S(=O)(=O)c2cc(=O)n(C)cc2-c2ccccc2Cl)CC1` [Compound 275, (R,Z)-1-((5-(2-chlorophenyl)-1-methyl-2-oxo-1,2-dihydropyridin-4-yl)sulfonyl)-4-fluoro-N-(4-(methylsulfonyl)but-3-en-2-yl)piperidine-4-carboxamide], the IC50 turned out to be 0.91 µM at PIK3CA_C242 and 1.3 µM at PIK3CA.

On to `CCOc1ccc(S(=O)(=O)N2CCC(F)(C(=O)N[C@H](C)/C=C\S(C)(=O)=O)CC2)c(-c2ccccc2C)c1` [Compound 102, (R,Z)-1-((5-ethoxy-2′-methyl-[1,1′-biphenyl]-2-yl)sulfonyl)-4-fluoro-N-(4-(methylsulfonyl)but-3-en-2-yl)piperidine-4-carboxamide], for which the IC50 turned out to be 0.61 µM against PIK3CA_C242 and 0.73 µM at PIK3CA.

Consider `C[C@@H](/C=C\S(C)(=O)=O)NC(=O)C1(F)CCN(S(=O)(=O)c2ccc(Cl)cc2-c2cccc(OC3CCC3)c2)CC1` [Compound 263, (S,Z)-1-((5-chloro-3′-cyclobutoxy-[1,1′-biphenyl]-2-yl)sulfonyl)-4-fluoro-N-(4-(methylsulfonyl)but-3-en-2-yl)piperidine-4-carboxamide], for which the values for the IC50 against PIK3CA_C242 and on PIK3CA were 0.93 µM and 1 µM, respectively.

As for `COc1ccc(S(=O)(=O)N2CCC(F)(C(=O)N[C@@H](C)/C=C\S(C)(=O)=O)CC2)c(-c2cccc(Cl)c2)c1` [Compound 7, (S,Z)-1-((3′-chloro-5-methoxy-[1,1′-biphenyl]-2-yl)sulfonyl)-4-fluoro-N-(4-(methylsulfonyl)but-3-en-2-yl)piperidine-4-carboxamide], the values for the IC50 against PIK3CA_C242 and on PIK3CA were 0.107 µM and 0.09 µM, respectively.

Consider `COc1cc(-c2ccccc2)c(S(=O)(=O)N2CCC(F)(C(=O)N[C@@H](C)/C=C\S(C)(=O)=O)CC2)cn1` [Compound 192, (S,Z)-4-fluoro-1-((6-methoxy-4-phenylpyridin-3-yl)sulfonyl)-N-(4-(methylsulfonyl)but-3-en-2-yl)piperidine-4-carboxamide], for which the IC50 against PIK3CA_C242 amounted to 0.24 µM; on PIK3CA it was 0.28 µM.

Consider `COc1cccc(-c2cc(Cl)ccc2S(=O)(=O)N2CCC(C)(C(=O)N[C@@H](C)/C=C\S(C)(=O)=O)CC2)c1` [Compound 201, (S,Z)-1-((5-chloro-3′-methoxy-[1,1′-biphenyl]-2-yl)sulfonyl)-4-methyl-N-(4-(methylsulfonyl)but-3-en-2-yl)piperidine-4-carboxamide], for which the IC50 against PIK3CA_C242 amounted to 0.31 µM; at PIK3CA it was 0.35 µM.

Turning to `Cc1ccccc1-c1cc(N(C)C)ccc1S(=O)(=O)N1CCC(F)(C(=O)N[C@H](C)/C=C\S(C)(=O)=O)CC1` [Compound 93, (R,Z)-1-((5-(dimethylamino)-2′-methyl-[1,1′-biphenyl]-2-yl)sulfonyl)-4-fluoro-N-(4-(methylsulfonyl)but-3-en-2-yl)piperidine-4-carboxamide], the figures for the IC50 on PIK3CA_C242 and at PIK3CA were 0.0755 µM and 0.15 µM, respectively.

On to `COc1cccc(-c2cc(Cl)ccc2S(=O)(=O)N2CCC(C)(C(=O)N[C@H](C)/C=C\S(C)(=O)=O)CC2)c1` [Compound 203, (R,Z)-1-((5-chloro-3′-methoxy-[1,1′-biphenyl]-2-yl)sulfonyl)-4-methyl-N-(4-(methylsulfonyl)but-3-en-2-yl)piperidine-4-carboxamide], for which the IC50 against PIK3CA_C242 amounted to 1.11 µM; on PIK3CA, 0.98 µM.

Take `C[C@H](/C=C\S(C)(=O)=O)NC(=O)C1(F)CCN(S(=O)(=O)c2ccc(N3CCCC3)cc2-c2ccccc2)CC1` [Compound 117, (R,Z)-4-fluoro-N-(4-(methylsulfonyl)but-3-en-2-yl)-1-((5-(pyrrolidin-1-yl)-[1,1′-biphenyl]-2-yl)sulfonyl)piperidine-4-carboxamide]: the IC50 on PIK3CA_C242 was found to be 0.81 µM; on PIK3CA, 0.83 µM.

In the case of `COc1cccc(COc2cccc(-c3cc(Cl)ccc3S(=O)(=O)N3CCC(F)(C(=O)N[C@@H](C)/C=C\S(C)(=O)=O)CC3)c2)c1` [Compound 261, (S,Z)-1-((5-chloro-3′-((3-methoxybenzyl)oxy)-[1,1′-biphenyl]-2-yl)sulfonyl)-4-fluoro-N-(4-(methylsulfonyl)but-3-en-2-yl)piperidine-4-carboxamide], the IC50 against PIK3CA_C242 was 0.73 µM; at PIK3CA, 0.48 µM.

`C[C@@H](/C=C\S(C)(=O)=O)NC(=O)C1(F)CCN(S(=O)(=O)c2ccc(Cl)cc2-c2cccc(CCO)c2)CC1` [Compound 220, (S,Z)-1-((5-chloro-3′-(2-hydroxyethyl)-[1,1′-biphenyl]-2-yl)sulfonyl)-4-fluoro-N-(4-(methylsulfonyl)but-3-en-2-yl)piperidine-4-carboxamide]: the IC50 against PIK3CA_C242 is 1.53 µM; at PIK3CA it was 0.92 µM.

For the molecule `CC[C@@H](/C=C\S(C)(=O)=O)NC(=O)C1(F)CCN(S(=O)(=O)c2ccc(Cl)cc2-c2cccc(OC)c2)CC1` [Compound 83, (S,Z)-1-((5-chloro-3′-methoxy-[1,1′-biphenyl]-2-yl)sulfonyl)-4-fluoro-N-(1-(methylsulfonyl)pent-1-en-3-yl)piperidine-4-carboxamide], the IC50 on PIK3CA_C242 was found to be 0.54 µM; on PIK3CA, 0.52 µM.

On to `CCCCOc1cccc(-c2cc(Cl)ccc2S(=O)(=O)N2CCC(F)(C(=O)N[C@@H](C)/C=C\S(C)(=O)=O)CC2)c1` [Compound 13, (S,Z)-1-((3′-butoxy-5-chloro-[1,1′-biphenyl]-2-yl)sulfonyl)-4-fluoro-N-(4-(methylsulfonyl)but-3-en-2-yl)piperidine-4-carboxamide], for which the results for the IC50 against PIK3CA_C242 and on PIK3CA were 0.34 µM and 0.48 µM, respectively.
